Measurements from PubChem BioAssay AID330 (DTP/NCI, 2004).
Inconclusive results and toxic doses are left out. Rule for the calls: active = survival T/C of 150% or more; inactive = T/C below 125% in these data.

Tested on: P388 leukemia ip, CD2F1 mice, survival T/C
Assay: NCI In Vivo Anticancer Drug Screen. Data for tumor model P388 Leukemia (intraperitoneal) in CD2F1 (CDF1) mice
Conditions: endpoint: median survival time, higher = longer survival
How it was run: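 Mice carrying the transplanted tumor received test compound or vehicle. Survival was recorded in each group, and the value is the treated-group measurement divided by that of the vehicle-treated control group.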

[1] = dose: 60.0 mg/kg/injection, schedule: Q01DX005 (ip), vehicle: saline with Tween-80
[2] = dose: 120.0 mg/kg/injection, schedule: Q01DX005 (ip), vehicle: saline with Tween-80
[3] = dose: 240.0 mg/kg/injection, schedule: Q01DX005 (ip), vehicle: saline with Tween-80
[4] = dose: 100.0 mg/kg/injection, schedule: Q01DX009 (ip), vehicle: saline with Tween-80
[5] = dose: 200.0 mg/kg/injection, schedule: Q01DX009 (ip), vehicle: saline with Tween-80
[6] = dose: 100.0 mg/kg/injection, schedule: Q04DX002 (ip), vehicle: Klucel (hydroxypropylcellulose) (HPC)
[7] = dose: 200.0 mg/kg/injection, schedule: Q04DX002 (ip), vehicle: Klucel (hydroxypropylcellulose) (HPC)
[8] = dose: 400.0 mg/kg/injection, schedule: Q04DX002 (ip), vehicle: Klucel (hydroxypropylcellulose) (HPC)
[9] = dose: 25.0 mg/kg/injection, schedule: Q01DX001 (ip), vehicle: Klucel (hydroxypropylcellulose) (HPC)
[10] = dose: 50.0 mg/kg/injection, schedule: Q01DX001 (ip), vehicle: Klucel (hydroxypropylcellulose) (HPC)
[11] = dose: 100.0 mg/kg/injection, schedule: Q01DX001 (ip), vehicle: Klucel (hydroxypropylcellulose) (HPC)
[12] = dose: 200.0 mg/kg/injection, schedule: Q01DX001 (ip), vehicle: Klucel (hydroxypropylcellulose) (HPC)
[13] = dose: 60.0 mg/kg/injection, schedule: Q01DX005 (ip), vehicle: Klucel (hydroxypropylcellulose) (HPC)
[14] = dose: 120.0 mg/kg/injection, schedule: Q01DX005 (ip), vehicle: Klucel (hydroxypropylcellulose) (HPC)
[15] = dose: 240.0 mg/kg/injection, schedule: Q01DX005 (ip), vehicle: Klucel (hydroxypropylcellulose) (HPC)
[16] = dose: 50.0 mg/kg/injection, schedule: Q01DX005 (ip), vehicle: Klucel (hydroxypropylcellulose) (HPC)
[17] = dose: 100.0 mg/kg/injection, schedule: Q01DX005 (ip), vehicle: Klucel (hydroxypropylcellulose) (HPC)
[18] = dose: 200.0 mg/kg/injection, schedule: Q01DX005 (ip), vehicle: Klucel (hydroxypropylcellulose) (HPC)
[19] = dose: 50.0 mg/kg/injection, schedule: Q01DX005 (ip), vehicle: saline with Tween-80
[20] = dose: 100.0 mg/kg/injection, schedule: Q01DX005 (ip), vehicle: saline with Tween-80
[21] = dose: 200.0 mg/kg/injection, schedule: Q01DX005 (ip), vehicle: saline with Tween-80
[22] = dose: 50.0 mg/kg/injection, schedule: Q01DX009 (ip), vehicle: Klucel (hydroxypropylcellulose) (HPC)
[23] = dose: 100.0 mg/kg/injection, schedule: Q01DX009 (ip), vehicle: Klucel (hydroxypropylcellulose) (HPC)
[24] = dose: 200.0 mg/kg/injection, schedule: Q01DX009 (ip), vehicle: Klucel (hydroxypropylcellulose) (HPC)
[25] = dose: 50.0 mg/kg/injection, schedule: Q01DX009 (ip), vehicle: saline with Tween-80
[26] = dose: 12.5 mg/kg/injection, schedule: Q01DX009 (ip), vehicle: Klucel (hydroxypropylcellulose) (HPC)
[27] = dose: 25.0 mg/kg/injection, schedule: Q01DX009 (ip), vehicle: Klucel (hydroxypropylcellulose) (HPC)

Measured: T/C

CC1=C(C(=O)CC(=O)C(=O)Nc2ccc(C)cc2C)Sc2ccccc2N1
inactive: [1] 104 % of control | [2] 101 % of control | [3] 94 % of control

S=C1Cc2[nH]c(=S)sc(=S)c2C(=S)N1
inactive: [4] 87 % of control

CCC1(O)C(=O)OCc2c1cc1n(c2=O)Cc2c-1nc1ccccc1c2OC (configuration not stated)
inactive: dose: 6.25 mg/kg/injection, schedule: Q01DX009 (ip), vehicle: saline 103 % of control | dose: 12.5 mg/kg/injection, schedule: Q01DX009 (ip), vehicle: saline 100 % of control | dose: 25.0 mg/kg/injection, schedule: Q01DX009 (ip), vehicle: saline 108 % of control

Cc1cc(C)[nH]c(=O)c1
inactive: [4] 100 % of control | [5] 100 % of control | dose: 400.0 mg/kg/injection, schedule: Q01DX009 (ip), vehicle: saline with Tween-80 109 % of control

C=C1CC2(CCCCC2c2ccccc2)OC1=O (configuration not stated)
inactive: [6] 97 % of control | [7] 103 % of control | [8] 103 % of control

COc1ccc(N=Nc2ccc(N(CCCl)CCCl)cc2)cc1
inactive: [9] 106 % of control | [10] 108 % of control | [11] 110 % of control

COc1ccccc1/C=C(/C)[N+](=O)[O-]
inactive: dose: 10.0 mg/kg/injection, schedule: Q01DX010 (ip), vehicle: saline 109 % of control | dose: 14.0 mg/kg/injection, schedule: Q01DX010 (ip), vehicle: saline 90 % of control | dose: 22.0 mg/kg/injection, schedule: Q01DX010 (ip), vehicle: saline 100 % of control | dose: 33.0 mg/kg/injection, schedule: Q01DX010 (ip), vehicle: saline 109 % of control | dose: 50.0 mg/kg/injection, schedule: Q01DX010 (ip), vehicle: saline 100 % of control | dose: 75.0 mg/kg/injection, schedule: Q01DX010 (ip), vehicle: saline 118 % of control

CC1=C(c2ccccc2)C(=O)OC1(c1ccccc1)c1ccccc1
inactive: [10] 91 % of control | [11] 88 % of control | [12] 89 % of control

O=C1CSC(=S)N1c1ccc(Cl)c(C(F)(F)F)c1
inactive: dose: 50.0 mg/kg/injection, schedule: Q01DX009 (ip), vehicle: suspension in saline 108 % of control | dose: 100.0 mg/kg/injection, schedule: Q01DX009 (ip), vehicle: suspension in saline 101 % of control | dose: 200.0 mg/kg/injection, schedule: Q01DX009 (ip), vehicle: suspension in saline 104 % of control

COC(=O)NN(C(=O)OC)C12CCCC1N(C(=O)OC)N(C(=O)OC)c1c2ccc2cc(OC)ccc12 (configuration not stated)
inactive: [6] 99 % of control | [7] 92 % of control | [8] 90 % of control

[CH3][Ge]1([CH3])[CH2]C(c2ccccc2)C(c2ccccc2)[CH2]1 (configuration not stated)
inactive: [13] 100 % of control | [14] 97 % of control | [15] 98 % of control

CSCCC(NC(=O)C(C)NC(=O)OCc1ccccc1)C(=O)O (configuration not stated)
inactive: [16] 99 % of control | [17] 101 % of control | [18] 95 % of control

CC1=CC=CC2=NC(=O)CCN12
inactive: dose: 100.0 mg/kg/injection, schedule: Q04DX003 (ip), vehicle: saline with Tween-80 100 % of control | dose: 200.0 mg/kg/injection, schedule: Q04DX003 (ip), vehicle: saline with Tween-80 100 % of control

CC(=O)Oc1ccccc1C(=O)OC1CC2CCC1(C)C2(C)C (configuration not stated)
inactive: [19] 92 % of control | [20] 97 % of control | [21] 98 % of control

COc1ccc(C2NC(=S)NC(=O)C2C#N)cc1OC (configuration not stated)
inactive: [22] 98 % of control | [23] 98 % of control | [24] 95 % of control

CCOC(=O)NC(=S)Nc1nonc1-c1ccccc1
inactive: [1] 96 % of control | [2] 100 % of control | [3] 97 % of control

CCOC1CC(C)(C)c2c(-c3ccccc3)nn(-c3ccccc3)c2O1 (configuration not stated)
inactive: [25] 94 % of control | [4] 100 % of control | [5] 98 % of control

Nc1ncnc(Nc2ccc(C(F)(F)F)cc2)n1
inactive: [26] 118 % of control | [27] 107 % of control | [22] 93 % of control | [23] 87 % of control

CCCCc1c(O)c(N=NC(=O)C[N+](C)(C)C)c2ccccc2c1O
inactive: [19] 104 % of control | [20] 110 % of control | [21] 108 % of control

O=C(O)CCC(NC(=O)c1ccc(N(CCCO)CC2CNc3nc(NCCCO)[nH]c(=O)c3N2CCCO)cc1)C(=O)O (configuration not stated)
inactive: dose: 50.0 mg/kg/injection, schedule: Q04DX003 (ip), vehicle: alkali diluted with saline 98 % of control | dose: 100.0 mg/kg/injection, schedule: Q04DX003 (ip), vehicle: alkali diluted with saline 109 % of control | dose: 200.0 mg/kg/injection, schedule: Q04DX003 (ip), vehicle: alkali diluted with saline 98 % of control

CC(=O)Nc1ccccc1NOC(=O)c1ccccc1NC(C)=O
inactive: [16] 91 % of control | [17] 87 % of control | [18] 91 % of control

CC12CSC(C)(SC1)SC2
inactive: [9] 99 % of control | [10] 99 % of control | [11] 100 % of control | [12] 100 % of control | dose: 400.0 mg/kg/injection, schedule: Q01DX001 (ip), vehicle: Klucel (hydroxypropylcellulose) (HPC) 95 % of control

COc1ccccc1-n1c(C)nc2c(cnn2CN2CCCCC2)c1=O
inactive: [16] 99 % of control | [17] 115 % of control | [18] 101 % of control

CC(=O)c1c[nH]cc1CO
inactive: [25] 107 % of control | [4] 100 % of control | [5] 98 % of control

N#CNc1nc2ccccc2[nH]1
inactive: dose: 6.25 mg/kg/injection, schedule: Q01DX009 (ip), vehicle: Klucel (hydroxypropylcellulose) (HPC) 100 % of control | [26] 103 % of control | [27] 108 % of control | [22] 101 % of control | [23] 100 % of control

N=C(N)SCc1cccc(C(=O)O)c1
inactive: [16] 110 % of control | [17] 105 % of control | [18] 96 % of control

CC1(C)OC(C)(C)C(=N\O)/C1=N/N
inactive: [13] 102 % of control | [14] 102 % of control | [15] 106 % of control

COc1ccc(/C=C2\NC(c3ccccc3)OC2=O)cc1OC (configuration not stated)
inactive: [22] 98 % of control | [23] 89 % of control | [24] 100 % of control

O=C(Nc1c(Cl)cccc1Cl)Nc1c(Cl)cccc1Cl
inactive: [1] 92 % of control | [2] 92 % of control | [3] 94 % of control
